Laboratory results published in the NIST ThermoML archive (doi:10.1016/j.jct.2017.03.027).

Experiments:
[1] = xn = mol fraction of the nth substance listed; conditions: 100 kPa, Liquid, Vibrating tube method
[2] = molar heat capacity at constant pressure; xn = mol fraction of the nth substance listed; conditions: 100 kPa, Liquid, Large sample (1 g) DSC

Cc1ccc(C(C)C)cc1 [1-(1-methylethyl)-4-methylbenzene] + CCO
Conditions | mass density, 298.15 K [kg/m3] | mass density, 308.15 K [kg/m3] | mass density, 318.15 K [kg/m3] | mass density, 328.15 K [kg/m3] | molar heat capacity at constant pressure, 298.6 K [J/K/mol] | molar heat capacity at constant pressure, 308.5 K [J/K/mol] | molar heat capacity at constant pressure, 318.5 K [J/K/mol] | molar heat capacity at constant pressure, 328.4 K [J/K/mol]
[1], x1 = 0.0494 | 793.49 | 784.81 | 775.96 | 766.9 | – | – | – | –
[1], x1 = 0.0995 | 800.72 | 792.02 | 783.15 | 774.08 | – | – | – | –
[1], x1 = 0.2 | 812.35 | 803.65 | 794.79 | 785.71 | – | – | – | –
[1], x1 = 0.3009 | 821.26 | 812.6 | 803.77 | 794.75 | – | – | – | –
[1], x1 = 0.4037 | 828.42 | 819.8 | 811.02 | 802.06 | – | – | – | –
[1], x1 = 0.5034 | 834.18 | 825.62 | 816.91 | 808.04 | – | – | – | –
[1], x1 = 0.6023 | 838.73 | 830.22 | 821.58 | 812.79 | – | – | – | –
[1], x1 = 0.7017 | 842.86 | 834.43 | 825.88 | 817.21 | – | – | – | –
[1], x1 = 0.802 | 846.53 | 838.18 | 829.75 | 821.21 | – | – | – | –
[1], x1 = 0.897 | 849.61 | 841.37 | 833.06 | 824.68 | – | – | – | –
[1], x1 = 0.9509 | 851.34 | 843.19 | 834.99 | 826.74 | – | – | – | –
[1], x1 = 1 | 852.93 | 844.89 | 836.81 | 828.69 | – | – | – | –
[2], x1 = 0.0494 | – | – | – | – | 121.2 | 126.1 | 130.8 | 135.6
[2], x1 = 0.0995 | – | – | – | – | 130 | 134.7 | 140.1 | 145.9
[2], x1 = 0.2 | – | – | – | – | 146.5 | 152.2 | 157.8 | 163.8
[2], x1 = 0.3009 | – | – | – | – | 162.2 | 168.5 | 174.7 | 181
[2], x1 = 0.4037 | – | – | – | – | 177.7 | 183.8 | 190.2 | 197
[2], x1 = 0.5034 | – | – | – | – | 192.6 | 199 | 205.4 | 211.9
[2], x1 = 0.6023 | – | – | – | – | 205.5 | 211.8 | 219.4 | 225.1
[2], x1 = 0.7017 | – | – | – | – | 217.6 | 224.3 | 230.7 | 236.9
[2], x1 = 0.802 | – | – | – | – | 229.2 | 235.3 | 240.9 | 247
[2], x1 = 0.897 | – | – | – | – | 238.6 | 243.1 | 248.4 | 253.8
[2], x1 = 0.9509 | – | – | – | – | 240.2 | 243.9 | 248.9 | 254.1
[2], x1 = 1 | – | – | – | – | 240.3 | 244.7 | 249.4 | 254.4
